Assays:
Assay in all cases: relative viability (nuclei count vs DMSO), 5 days (fraction); higher = more cells survive
Axitinib + OSI-027 = compound: CNC(=O)c1ccccc1Sc1ccc2c(/C=C/c3ccccn3)n[nH]c2c1 [Axitinib] + COc1cccc2cc(-c3nc([C@H]4CC[C@H](C(=O)O)CC4)n4ncnc(N)c34)[nH]c12 [OSI-027] (partner 0.5 µM)
Method in brief: (§1)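 Medians of duplicate plates are given as relative viability. That measure is the nuclei count in treated wells divided by the count in vehicle wells. Counts were taken on 4× images of lung cancer cell lines in 1536-well plates, 5 days after pin-tool dosing the day after seeding with one drug alone or a fixed anchor-drug dose plus five library-drug doses (not always all listed) in √10 steps.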

Axitinib + Olaparib = compound: CNC(=O)c1ccccc1Sc1ccc2c(/C=C/c3ccccn3)n[nH]c2c1 [Axitinib] + O=C(c1cc(Cc2n[nH]c(=O)c3ccccc23)ccc1F)N1CCN(C(=O)C2CC2)CC1 [Olaparib] (partner 8 µM)
Method in brief: as §1

Bemcentinib + Pictilisib = compound: Nc1nc(Nc2ccc3c(c2)CC[C@@H](N2CCCC2)CC3)nn1-c1cc2c(nn1)-c1ccccc1CCC2 [Bemcentinib] + CS(=O)(=O)N1CCN(Cc2cc3nc(-c4cccc5[nH]ncc45)nc(N4CCOCC4)c3s2)CC1 [Pictilisib] (partner 1 µM)
Method in brief: as §1

Bemcentinib + Olaparib = compound: Nc1nc(Nc2ccc3c(c2)CC[C@@H](N2CCCC2)CC3)nn1-c1cc2c(nn1)-c1ccccc1CCC2 [Bemcentinib] + O=C(c1cc(Cc2n[nH]c(=O)c3ccccc23)ccc1F)N1CCN(C(=O)C2CC2)CC1 [Olaparib] (partner 8 µM)
Method in brief: as §1

NCI-H2405 was tested, and the relative viability (Axitinib + OSI-027; first compound 0.005 µM) was 0.654, the relative viability (Axitinib + OSI-027; first compound 0.01581 µM) was 0.666 and the relative viability (Axitinib + OSI-027; first compound 0.05 µM) was 0.675. The relative viability (Axitinib + OSI-027; first compound 0.1581 µM) was 0.643, the relative viability (Axitinib + OSI-027; first compound 0.5 µM) was 0.722 and the relative viability (Axitinib + Olaparib; first compound 0.005 µM) was 0.892. The relative viability (Axitinib + Olaparib; first compound 0.01581 µM) was 0.919, the relative viability (Axitinib + Olaparib; first compound 0.05 µM) was 0.94 and the relative viability (Axitinib + Olaparib; first compound 0.1581 µM) was 0.827. The relative viability (Axitinib + Olaparib; first compound 0.5 µM) was 0.949, the relative viability (Bemcentinib + Pictilisib; first compound 0.04 µM) was 0.392 and the relative viability (Bemcentinib + Pictilisib; first compound 0.1265 µM) was 0.513. The relative viability (Bemcentinib + Pictilisib; first compound 0.4 µM) was 0.415, the relative viability (Bemcentinib + Pictilisib; first compound 1.265 µM) was 0.517 and the relative viability (Bemcentinib + Pictilisib; first compound 4 µM) was 0.509. It also gave a relative viability (Bemcentinib + Olaparib; first compound 0.04 µM) of 0.83, a relative viability (Bemcentinib + Olaparib; first compound 0.1265 µM) of 0.938 and a relative viability (Bemcentinib + Olaparib; first compound 0.4 µM) of 0.959. It also gave a relative viability (Bemcentinib + Olaparib; first compound 1.265 µM) of 0.975 and a relative viability (Bemcentinib + Olaparib; first compound 4 µM) of 0.91.
UMC-11 was tested, and the relative viability (Axitinib + OSI-027; first compound 0.005 µM) was 0.494, the relative viability (Axitinib + OSI-027; first compound 0.01581 µM) was 0.504 and the relative viability (Axitinib + OSI-027; first compound 0.05 µM) was 0.438. The relative viability (Axitinib + OSI-027; first compound 0.1581 µM) was 0.498, the relative viability (Axitinib + OSI-027; first compound 0.5 µM) was 0.521 and the relative viability (Axitinib + Olaparib; first compound 0.005 µM) was 0.353. It also gave a relative viability (Axitinib + Olaparib; first compound 0.01581 µM) of 0.4, a relative viability (Axitinib + Olaparib; first compound 0.05 µM) of 0.737 and a relative viability (Axitinib + Olaparib; first compound 0.1581 µM) of 0.376. It also gave a relative viability (Axitinib + Olaparib; first compound 0.5 µM) of 0.335, a relative viability (Bemcentinib + Pictilisib; first compound 0.04 µM) of 0.615 and a relative viability (Bemcentinib + Pictilisib; first compound 0.1265 µM) of 0.929. For the same cell line, the relative viability (Bemcentinib + Pictilisib; first compound 0.4 µM) was 0.902, the relative viability (Bemcentinib + Pictilisib; first compound 1.265 µM) was 0.585 and the relative viability (Bemcentinib + Pictilisib; first compound 4 µM) was 0.85. For the same cell line, the relative viability (Bemcentinib + Olaparib; first compound 0.04 µM) was 0.366, the relative viability (Bemcentinib + Olaparib; first compound 0.1265 µM) was 0.678 and the relative viability (Bemcentinib + Olaparib; first compound 0.4 µM) was 0.322. For the same cell line, the relative viability (Bemcentinib + Olaparib; first compound 1.265 µM) was 0.352 and the relative viability (Bemcentinib + Olaparib; first compound 4 µM) was 0.384.
Cell Line PC-14 has a relative viability (Axitinib + OSI-027; first compound 0.005 µM) of 0.916, a relative viability (Axitinib + OSI-027; first compound 0.01581 µM) of 0.717 and a relative viability (Axitinib + OSI-027; first compound 0.05 µM) of 0.975. For the same cell line, the relative viability (Axitinib + OSI-027; first compound 0.1581 µM) was 0.82, the relative viability (Axitinib + OSI-027; first compound 0.5 µM) was 1.41 and the relative viability (Axitinib + Olaparib; first compound 0.005 µM) was 0.326. The relative viability (Axitinib + Olaparib; first compound 0.01581 µM) was 0.368, the relative viability (Axitinib + Olaparib; first compound 0.05 µM) was 0.275 and the relative viability (Axitinib + Olaparib; first compound 0.1581 µM) was 0.4. For the same cell line, the relative viability (Axitinib + Olaparib; first compound 0.5 µM) was 0.24, the relative viability (Bemcentinib + Pictilisib; first compound 0.04 µM) was 0.651 and the relative viability (Bemcentinib + Pictilisib; first compound 0.1265 µM) was 0.792. It also gave a relative viability (Bemcentinib + Pictilisib; first compound 0.4 µM) of 0.628, a relative viability (Bemcentinib + Pictilisib; first compound 1.265 µM) of 0.509 and a relative viability (Bemcentinib + Pictilisib; first compound 4 µM) of 0.704. For the same cell line, the relative viability (Bemcentinib + Olaparib; first compound 0.04 µM) was 0.279, the relative viability (Bemcentinib + Olaparib; first compound 0.1265 µM) was 0.433 and the relative viability (Bemcentinib + Olaparib; first compound 0.4 µM) was 0.235. For the same cell line, the relative viability (Bemcentinib + Olaparib; first compound 1.265 µM) was 0.225 and the relative viability (Bemcentinib + Olaparib; first compound 4 µM) was 0.187.

Reference: the supplement of paper PMC10307832
